Consider 15 compounds from PubChem BioAssay (NCI).

Some test systems named below: 786-0 renal; A498 renal; A549 NSCLC; CCRF-CEM leukemia; IGROV1 ovarian; MCF7 breast; OVCAR-8 ovarian; SN12C renal; MALME-3M melanoma; NCI-H460 lung.
Common to all, as to assay: NCI-60 cell line screen, 48 h

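How tested: cells in 96-well plates exposed to compound for 48 hours at five concentrations. TGI marks complete inhibition of growth.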

For `O=C1c2ccccc2-c2nc(/C=C/c3ccccc3)cc3c2c1nc1ccccc13`, the TGI in the experiment on 786-0 renal, with A498 renal, in the experiment with A549 NSCLC, in the experiment on CCRF-CEM leukemia, in the experiment on IGROV1 ovarian and with MCF7 breast was > 100 µM each time. For the same compound, the TGI in the experiment with OVCAR-8 ovarian and in the experiment on SN12C renal was > 100 µM each time.

Take `c1ccc(C(CCN2CC3CCC(CC3)C2)c2ccccc2)cc1`: the TGI in the experiment with 786-0 renal was 36.1 µM; in the experiment on A498 renal it was 34.1 µM; in the experiment with A549 NSCLC, > 100 µM; in the experiment with IGROV1 ovarian, > 100 µM; with MALME-3M melanoma it was 29.9 µM; in the experiment with MCF7 breast, 29 µM. In addition, the TGI with NCI-H460 lung stood at 28.9 µM; with OVCAR-8 ovarian it was 98.3 µM; in the experiment with SN12C renal, 84.7 µM.

Consider `NS(=O)(=O)c1nnc(NS(=O)(=O)c2ccccc2C(=O)O)s1`, for which the TGI in the experiment with 786-0 renal, in the experiment on A498 renal, in the experiment on A549 NSCLC, with MALME-3M melanoma, in the experiment on MCF7 breast and in the experiment with NCI-H460 lung was > 100 µM in each case. Besides, the TGI with OVCAR-8 ovarian and in the experiment on SN12C renal was > 100 µM in each case.

Take `Cc1cc2nc(N3C(=O)/C(=C/c4ccc(Cl)cc4)N=C3c3ccccc3)sc2cc1C`: the TGI in the experiment with 786-0 renal was 92.1 µM; in the experiment with A498 renal, 85.9 µM; in the experiment with A549 NSCLC it was > 100 µM; in the experiment with CCRF-CEM leukemia, 38.7 µM; with IGROV1 ovarian, > 100 µM; in the experiment on MCF7 breast, > 100 µM. In addition, the results for the TGI in the experiment with NCI-H460 lung, in the experiment with OVCAR-8 ovarian and in the experiment on SN12C renal were > 100 µM, > 100 µM and 87.6 µM, respectively.

For the compound `CCN(CC)C(=O)N1CN(c2ccccc2)C2(CCN(CCCSc3ccc(F)cc3)CC2)C1=O`, the TGI is 25.4 µM with 786-0 renal; > 100 µM in the experiment on A549 NSCLC; > 100 µM in the experiment on CCRF-CEM leukemia; 29.6 µM with MALME-3M melanoma; > 100 µM in the experiment on MCF7 breast; 54.4 µM with OVCAR-8 ovarian. In the experiment on SN12C renal, the TGI amounted to 39.8 µM.

On to `O=C(OCc1ccccc1)N1CCN(C(=O)OCc2ccccc2)CCN(C(=O)OCc2ccccc2)CCN(C(=O)OCc2ccccc2)CCN(C(=O)OCc2ccccc2)CC1`, for which the TGI with 786-0 renal was 48.4 µM; in the experiment on A498 renal, > 100 µM; in the experiment on A549 NSCLC it was > 100 µM; in the experiment on MALME-3M melanoma, 61.2 µM; with MCF7 breast, > 100 µM; in the experiment with NCI-H460 lung, > 100 µM. The TGI in the experiment with OVCAR-8 ovarian and with SN12C renal was > 100 µM throughout.

For `CC1CCc2sc3[nH]c(=S)n(-c4ccccc4)c(=O)c3c2C1` (stereo unspecified), the TGI in the experiment on 786-0 renal, with A549 NSCLC, in the experiment on IGROV1 ovarian, in the experiment with MALME-3M melanoma, in the experiment on MCF7 breast and with NCI-H460 lung was > 100 µM each time. The TGI with OVCAR-8 ovarian and in the experiment on SN12C renal was > 100 µM each time.

For `COc1ccc(-c2cc(-c3cc(F)c(Cl)cc3Cl)on2)cc1OC`, the TGI with 786-0 renal, in the experiment with A549 NSCLC, in the experiment with CCRF-CEM leukemia, in the experiment on IGROV1 ovarian, with MALME-3M melanoma and in the experiment with NCI-H460 lung was > 100 µM in each case. Besides, the TGI in the experiment on OVCAR-8 ovarian and in the experiment on SN12C renal was > 100 µM each time.

As for `O=C1CCCC2=C1CC1=C(CCCC1=O)N2c1ccccc1`, the TGI with 786-0 renal, in the experiment on A498 renal, with A549 NSCLC, with CCRF-CEM leukemia, with IGROV1 ovarian and with MCF7 breast was > 100 µM in each case. For the same compound, the TGI in the experiment with NCI-H460 lung, with OVCAR-8 ovarian and with SN12C renal was > 100 µM in each case.

In the case of `c1ccc(-c2cc(-c3cccs3)c(-c3cccs3)o2)cc1`, the TGI in the experiment on 786-0 renal, in the experiment on A498 renal, in the experiment on A549 NSCLC, in the experiment with CCRF-CEM leukemia, with IGROV1 ovarian and in the experiment on MCF7 breast was > 100 µM throughout. The TGI in the experiment on NCI-H460 lung, with OVCAR-8 ovarian and in the experiment on SN12C renal was > 100 µM throughout.

`Cn1c(=O)c2c(nc(Nc3ccc(Cl)cc3)n3c(=O)n(-c4ccccc4)c(=O)n23)n(C)c1=O`: the TGI in the experiment on 786-0 renal, with A498 renal, with A549 NSCLC, in the experiment on CCRF-CEM leukemia, in the experiment on IGROV1 ovarian and with MCF7 breast was > 100 µM throughout. Moreover, the TGI in the experiment with NCI-H460 lung, in the experiment on OVCAR-8 ovarian and with SN12C renal was > 100 µM each time.

In the case of `NC1CC(=O)c2sccc21` (stereo unspecified), the TGI in the experiment on 786-0 renal, in the experiment on A498 renal, in the experiment with A549 NSCLC, with CCRF-CEM leukemia, in the experiment with IGROV1 ovarian and with MCF7 breast was > 100 µM each time. In addition, the TGI with OVCAR-8 ovarian and in the experiment with SN12C renal was > 100 µM throughout.

With `CSc1nc2c(=O)n(-c3ccccc3)c(=S)n(-c3ccccc3)c2s1`, the TGI with 786-0 renal, with A549 NSCLC, in the experiment on CCRF-CEM leukemia, with IGROV1 ovarian, in the experiment on MALME-3M melanoma and in the experiment on MCF7 breast was > 100 µM in each case. Further, the TGI with NCI-H460 lung, in the experiment on OVCAR-8 ovarian and with SN12C renal was > 100 µM each time.

As for `O=C(N/N=C\c1ccccc1)Nc1cccc2ccccc12`, the TGI with 786-0 renal was 30.1 µM; in the experiment with A498 renal, 88.9 µM; in the experiment with A549 NSCLC, > 100 µM; in the experiment with CCRF-CEM leukemia, > 100 µM; with IGROV1 ovarian, > 100 µM; in the experiment on MALME-3M melanoma it was > 100 µM. In addition, the figures for the TGI in the experiment with NCI-H460 lung, in the experiment with OVCAR-8 ovarian and in the experiment on SN12C renal were > 100 µM, > 100 µM and 45.9 µM, respectively.

As to `N#Cc1nc(CCC(c2nc(C#N)c(N)o2)N2C(=O)c3ccccc3C2=O)oc1N` (stereo unspecified), the TGI with 786-0 renal, with A498 renal, in the experiment with A549 NSCLC, with IGROV1 ovarian, in the experiment with MALME-3M melanoma and with MCF7 breast was > 100 µM in each case. In addition, the TGI with NCI-H460 lung and in the experiment on SN12C renal was > 100 µM throughout.
